Experiments:
human mGlu3 [1] = target: T1, human mGlu3 (Homo sapiens, UniProt Q14832)
human mGlu5 [2] = target: T2, human mGlu5 (Homo sapiens, UniProt P41594); test: Calcium mobilization assay, mGlu5 PAM activity; assay type: cell-based; conditions: for decrease in mGlu5 potency versus comparator analog: 4n vs 4k, 4x vs 4c, 4z vs unsubstituted -CH2-O- linker, 20 vs piperazinone core; for mGlu5 activity in words: 4y vs 4k, 21a-c pyrazole unit modifications
Na channels = test: Cardiovascular ion channel interaction, Na channel; conditions: read-out: Na channel IC50
[3] = High content cytotoxicity assay
[4] = Predicted rat hepatic clearance from microsomal CLint; assay type: in vitro ADME; conditions: predicted hepatic clearance based on microsomal CLint data
Toxicology rat MTD study = assay type: in vivo
Ca channels = test: Cardiovascular ion channel interaction, Ca channel; conditions: read-out: Ca channel IC50
[5] = Terminal unbound brain concentration in the AHL study; conditions: rat, in vivo, po, 10 mg/kg
human mGlu3 [6] = target: T1, human mGlu3; test: cell-based
human mGlu5 [7] = target: T2, human mGlu5; conditions: cited from earlier work

T2 sequence (P41594 21-1212): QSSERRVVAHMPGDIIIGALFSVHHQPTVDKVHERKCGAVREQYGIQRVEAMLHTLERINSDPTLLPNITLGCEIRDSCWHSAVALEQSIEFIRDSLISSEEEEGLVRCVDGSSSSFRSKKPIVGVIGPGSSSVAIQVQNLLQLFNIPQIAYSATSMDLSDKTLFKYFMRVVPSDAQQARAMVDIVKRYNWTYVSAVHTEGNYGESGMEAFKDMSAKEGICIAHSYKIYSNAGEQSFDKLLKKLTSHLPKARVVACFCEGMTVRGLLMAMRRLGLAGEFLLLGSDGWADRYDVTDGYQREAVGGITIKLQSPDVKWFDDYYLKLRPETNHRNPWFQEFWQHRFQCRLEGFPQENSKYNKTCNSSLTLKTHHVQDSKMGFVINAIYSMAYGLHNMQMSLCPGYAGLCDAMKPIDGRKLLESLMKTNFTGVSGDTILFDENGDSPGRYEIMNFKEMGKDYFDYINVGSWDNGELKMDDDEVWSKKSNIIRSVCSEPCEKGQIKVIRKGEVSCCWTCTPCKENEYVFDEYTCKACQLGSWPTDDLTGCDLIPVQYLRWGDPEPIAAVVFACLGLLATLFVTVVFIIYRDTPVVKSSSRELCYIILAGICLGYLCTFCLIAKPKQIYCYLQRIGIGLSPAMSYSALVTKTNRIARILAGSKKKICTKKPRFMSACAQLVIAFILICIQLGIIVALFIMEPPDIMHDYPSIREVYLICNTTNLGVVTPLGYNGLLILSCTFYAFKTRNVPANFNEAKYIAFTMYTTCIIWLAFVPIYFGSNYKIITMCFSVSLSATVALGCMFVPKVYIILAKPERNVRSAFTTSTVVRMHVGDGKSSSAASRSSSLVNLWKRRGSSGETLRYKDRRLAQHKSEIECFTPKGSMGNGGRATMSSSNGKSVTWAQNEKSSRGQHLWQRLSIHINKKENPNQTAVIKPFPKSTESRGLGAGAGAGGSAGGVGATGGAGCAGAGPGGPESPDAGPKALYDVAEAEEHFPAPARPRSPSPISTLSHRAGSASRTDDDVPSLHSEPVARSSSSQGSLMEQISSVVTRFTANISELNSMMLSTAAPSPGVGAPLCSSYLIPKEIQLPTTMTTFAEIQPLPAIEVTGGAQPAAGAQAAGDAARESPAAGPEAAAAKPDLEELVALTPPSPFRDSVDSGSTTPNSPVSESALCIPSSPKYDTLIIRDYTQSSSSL
T1 sequence (Q14832 23-879): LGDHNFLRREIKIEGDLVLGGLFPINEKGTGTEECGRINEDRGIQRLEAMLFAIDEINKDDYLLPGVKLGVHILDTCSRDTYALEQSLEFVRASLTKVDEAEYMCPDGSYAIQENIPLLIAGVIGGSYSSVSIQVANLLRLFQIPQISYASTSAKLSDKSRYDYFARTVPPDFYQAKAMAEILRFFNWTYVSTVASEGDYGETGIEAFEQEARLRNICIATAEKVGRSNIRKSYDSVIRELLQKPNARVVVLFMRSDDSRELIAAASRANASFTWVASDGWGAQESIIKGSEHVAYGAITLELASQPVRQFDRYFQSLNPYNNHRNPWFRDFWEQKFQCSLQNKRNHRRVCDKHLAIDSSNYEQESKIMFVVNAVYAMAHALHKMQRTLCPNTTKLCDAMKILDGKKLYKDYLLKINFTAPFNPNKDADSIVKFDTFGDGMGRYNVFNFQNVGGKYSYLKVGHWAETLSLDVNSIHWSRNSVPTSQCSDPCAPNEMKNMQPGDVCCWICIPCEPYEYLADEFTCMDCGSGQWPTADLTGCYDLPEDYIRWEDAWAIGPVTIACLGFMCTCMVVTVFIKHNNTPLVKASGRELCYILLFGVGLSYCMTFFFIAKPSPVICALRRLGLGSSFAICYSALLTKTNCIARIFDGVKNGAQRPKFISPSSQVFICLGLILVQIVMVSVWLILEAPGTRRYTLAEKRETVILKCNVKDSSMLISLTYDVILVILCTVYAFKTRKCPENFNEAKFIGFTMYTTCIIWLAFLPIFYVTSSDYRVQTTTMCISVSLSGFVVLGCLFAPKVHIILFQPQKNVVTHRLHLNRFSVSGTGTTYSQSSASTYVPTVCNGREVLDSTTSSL

O=C1c2cc(COc3ccccc3)nn2CCN1c1ccc(F)cc1 [4c]
extent of mGlu3 antagonism (human mGlu3 [1]): full antagonism
pEC50 (±SEM) (human mGlu5 [2]; HEK293 cells expressing human mGlu5, average of three or more determinations): 7.19 ± 0.02

Cc1ccc(N2CCn3nc(COc4ccccc4)cc3C2=O)cc1 [4f]
extent of mGlu3 antagonism (human mGlu3 [1]): full antagonism

O=C1c2cc(COc3ccccc3)nn2CCN1c1ccccn1 [4h]
increased mGlu5 potency over the 3- and 4- pyridyl isomers (4i,j) (human mGlu5 [2]): ~ 3 fold

O=C1c2cc(COc3ccccc3)nn2CCN1c1ccc(F)cn1 [4k]
IC50 (Na channels): > 10 µM
high content cytotoxicity [3]: > 100 µM
Rat CLhep [4]: 2.07 L/h/kg
AMES result (AMES): benign profile
death of animals at the highest dose (Toxicology rat MTD study; 600 mg/kg p.o., rat MTD study): 2/6
signs of CNS-related side-effects (compulsive behavior, pedaling movements of the forepaws, tremors) (Toxicology rat MTD study; rat MTD study 25, 75, 150, 300 and 600 mg/kg p.o.): starting at the lowest tested dose
IC50 (Ca channels): > 10 µM
concentration at 90 min [5]: 0.313 µM

Cc1ccc(N2CCn3nc(COc4ccccc4)cc3C2=O)nc1 [4l]
EC50 (human mGlu3 [6]): > 10 µM
functional selectivity for mGlu5 versus mGlu3 antagonist activity (human mGlu3 [1]): > 50 fold

O=C1c2cc(COc3ccccc3)nn2CCN1c1ncc(F)cn1 [4n]
decrease in mGlu5 potency versus comparator analog (human mGlu5 [2]): ~ 6 fold

O=C1c2cc(COc3ccc(F)cc3)nn2CCN1c1ccc(F)cc1 [4q]
extent of mGlu3 antagonism (human mGlu3 [1]): full antagonism

O=C1c2cc(COc3ccccn3)nn2CCN1c1ccc(F)cc1 [4s]
extent of mGlu3 antagonism (human mGlu3 [1]): full antagonism

O=C1c2cc(COc3cccc(F)c3)nn2CCN1c1ccc(F)cn1 [4w]
EC50 (human mGlu3 [6]): 0.14 µM

O=C1c2cc(OCc3ccccc3)nn2CCN1c1ccc(F)cc1 [4x]
Rat CLhep [4]: 2.08 L/h/kg
decrease in mGlu5 potency versus comparator analog (human mGlu5 [2]): ~ 2.5 fold
concentration at 90 min [5]: 0.376 µM

O=C1c2cc(OCc3ccccc3)nn2CCN1c1cc(F)ccn1 [4y]
mGlu5 activity in words (human mGlu5 [2]): complete loss of activity

CC(Oc1ccccc1)c1cc2n(n1)CCN(c1ccc(F)cc1)C2=O (stereo not drawn) [4z]
decrease in mGlu5 potency versus comparator analog (human mGlu5 [2]): > 100 fold

O=C1c2nc(COc3ccccc3)nn2CCN1c1ccc(F)cc1 [21a]
mGlu5 activity in words (human mGlu5 [2]): remarkable loss of mGlu5 potency

Cc1c(COc2ccccc2)nn2c1C(=O)N(c1ccc(F)cc1)CC2 [21b]
mGlu5 activity in words (human mGlu5 [2]): remarkable loss of mGlu5 potency

O=C(c1ccc(F)cc1)N1CCc2oc(COc3ccccc3)nc2C1 [compound 1]
glutamate CRC fold-shift (FS) (human mGlu5 [7]): 11

O=C1c2cc(COc3ccccc3)nn2CCCN1c1ccc(F)cc1 [compound 20]
decrease in mGlu5 potency versus comparator analog (human mGlu5 [2]): ~ 3 fold
